The source of these data is patent US8895547B2, “Substituted phenyl-oxathiazine derivatives, method for producing them, drugs containing said compounds and the use thereof” (Sanofi, priority 2011, dated 2014).

This experiment deals with T1, human 11β-HSD1 (Homo sapiens, UniProt P28845).
T1 construct: host or cells: microsome fraction
Nature of the experiment: Enzymatic 11beta-HSD1 test (SPA-based detection). The format is biochemical. As to conditions: human 11β-HSD1 microsome fraction, [1,2-3H]-cortisone, NADPH, 37° C. 1 hour. As for the experimental part: Enzymatic 11beta-HSD1 test:
To measure the activity of the compounds, an SPA-based detection method (Solly et al. 2005) was employed. First of all, 20 μl of the human 11β-HSD1 microsome fraction (0.2 μg of protein), prepared in 50 mM HEPES, 0.1% BSA (w/v), were applied to a plate with 384 wells. The test compounds (0.09 μl) were applied to the assay plate in 100% DMSO. The reaction was started by addition of 20 μl of [1,2-^3H]-cortisone (0.1 μCi/[…]) in assay buffer comprising 25 mM HEPES, 100 mM KCl, 5 mM NaCl, 2 mM MgCl2 and 0.25 mM NADPH. The plate was agitated at 37° C. for 1 hour. At the same time, a stop solution comprising 20 mg/ml SPA-PVT beads, 1.6 mg/ml monoclonal cortisol antibody and 0.01 mM SSR110887 (inhibitor from the Biovitrium patent) in 50 mM HEPES, 1 M NaCl and 1 M KCl was stirred at room temperature. To stop the reaction, 25 μl of the stop solution were added to each well. The plate was agitated gently at room temperature for 1 further hour and then centrifuged at 500 gav for 1 minute, in order that the SPA beads could settle out. The plate was then read in a Wallac-1450-Microbeta unit with a standard SPA program (counting time 1 min/well). The comparative compound was glycyrrhetinic acid.
Protein and radioactive substrate were dispensed with a Biomek FX unit (Beckman Coulter) for handling liquids. The test compounds were added with a Cybi-Well equipped with a 90 nl pin tool (CyBio).
Lit.: Solly S, Mundt S S, Zokian H J, Juy-Fang Ding G, Hermanowski-Vosatka A, Strulovici B and Zheng W. High-throughput screening of 11β-Hydroxysteroid dehydrogenase type 1 in scintillation proximity format. Assay Drug Dev Technol 2005; 3:377-384.

By IC50 is commonly meant the concentration needed to halve the response being measured. A higher IC50 goes with a need for much substance.

T1 sequence (P28845 whole entry): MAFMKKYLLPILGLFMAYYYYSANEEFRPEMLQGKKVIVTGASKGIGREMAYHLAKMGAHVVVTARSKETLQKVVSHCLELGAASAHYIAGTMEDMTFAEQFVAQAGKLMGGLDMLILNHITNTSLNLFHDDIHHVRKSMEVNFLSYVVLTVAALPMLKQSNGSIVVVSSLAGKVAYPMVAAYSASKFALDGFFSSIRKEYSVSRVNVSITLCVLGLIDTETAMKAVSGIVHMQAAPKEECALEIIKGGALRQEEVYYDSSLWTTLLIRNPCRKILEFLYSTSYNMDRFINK

Regarding `C[C@H](NC1=NS(=O)(=O)C(C)(c2ccccc2)C(C)(C)O1)c1ccccc1F` (stereo partly drawn) [Compound 57, [(S)-1-(2-Fluorophenyl)ethyl]-(5,6,6-trimethyl-4,4-dioxo-5-phenyl-5,6-dihydro-4H-4lambda6-[1,4,3]oxathiazin-2-yl)amine, stereomer 2], the half-inhibitory concentration (IC50) amounted to 7 nM. Compound `CC(=O)Oc1ccc(C2C(C)(C)OC(N[C@@H](CCO)c3ccccc3F)=NS2(=O)=O)cc1` (stereo partly drawn) [Example 155, Acetic acid 4-{2-[(S)-1-(2-fluorophenyl)-3-hydroxy-propylamino]-6,6-dimethyl-4,4-dioxo-5,6-dihydro-4H-4lambda6-[1,4,3]oxathiazin-5-yl}-phenyl ester] showed a half-inhibitory concentration (IC50) of 17 nM. Next, `CC1(C)OC(NC2CCCCC2)=NS(=O)(=O)C1c1cccc(O)c1` (stereo not drawn) [Example 22, 3-(2-Cyclohexylamino-6,6-dimethyl-4,4-dioxo-5,6-dihydro-4H-4lambda6-[1,4,3]oxathiazin-5-yl)-phenol]: 163 nM; `COc1ccccc1-c1ccc(C2C(C)(C)OC(N[C@@H](CCO)c3ccccc3F)=NS2(=O)=O)cc1` (stereo partly drawn) [Example 94, (S)-3-(2-Fluorophenyl)-3-[5-(2′-methoxy-biphenyl-4-yl)-6,6-dimethyl-4,4-dioxo-5,6-dihydro-4H-4lambda6-[1,4,3]oxathiazin-2-ylamino]-propan-1-ol]: 14 nM; `Cc1ccc(F)cc1[C@H](CCO)NC1=NS(=O)(=O)C(c2ccc(-c3ccccc3)cc2)C(C)(C)O1` (stereo partly drawn) [Example 100, (S)-3-(5-Biphenyl-4-yl-6,6-dimethyl-4,4-dioxo-5,6-dihydro-4H-4lambda6-[1,4,3]oxathiazin-2-ylamino)-3-(5-fluoro-2-methyl-phenyl)-propan-1-ol]: 19 nM. Next, `O=S1(=O)N=C(N[C@@H](CCO)c2ccccc2F)OC2(CCCC2)C1c1ccc(-c2ccccc2)cc1` (stereo partly drawn) [Example 78, (S)-3-(10-Biphenyl-4-yl-9,9-dioxo-6-oxa-9lambda6-thia-8-aza-spiro[4.5]dec-7-en-7-ylamino)-3-(2-fluorophenyl)-propan-1-ol]: 35 nM. Next, `Cn1cc(-c2ccc(C3C(C)(C)OC(N[C@@H](CCO)c4ccccc4F)=NS3(=O)=O)cc2)cn1` (stereo partly drawn) [Example 124, (S)-3-{6,6-Dimethyl-5-[4-(1-methyl-1H-pyrazol-yl)-phenyl]-4,4-dioxo-5,6-dihydro-4H-4lambda6-[1,4,3]oxathiazin-2-ylamino}-3-(2-fluorophenyl)-propan-1-ol]: 8 nM. For the compound `CC1(C)OC(N[C@@H](CCO)c2ccccc2F)=NS(=O)(=O)C1c1ccc(-c2ccncc2)cc1` (stereo partly drawn) [Example 119, (S)-3-[6,6-Dimethyl-4,4-dioxo-5-(4-pyridin-4-yl-phenyl)-5,6-dihydro-4H-4lambda6-[1,4,3]oxathiazin-2-ylamino]-3-(2-fluorophenyl)-propan-1-ol], the IC50 amounted to 6 nM. This IC50 and that of the compound before are within 1.5-fold of each other. In turn, `C[C@H](NC1=NS(=O)(=O)C(c2ccc(N3CCN(C)CC3)cc2)C(C)(C)O1)c1ccccc1F` (stereo partly drawn) [Example 170, {6,6-Dimethyl-5-[4-(4-methyl-piperazin-1-yl)-phenyl]-4,4-dioxo-5,6-dihydro-4H-4lambda6-[1,4,3]oxathiazin-2-yl}-[(S)-1-(2-fluorophenyl)-ethyl]-amine] came in with an IC50 of 246 nM. Then `CC1(C)OC(N[C@@H](CCO)c2ccccc2F)=NS(=O)(=O)C1c1ccc(-c2cncnc2)cc1` (stereo partly drawn) [Example 90, (S)-3-[6,6-Dimethyl-4,4-dioxo-5-(4-pyrimidin-5-yl-phenyl)-5,6-dihydro-4H-4lambda6-[1,4,3]oxathiazin-2-ylamino]-3-(2-fluorophenyl)-propan-1-ol], with 7 nM; and `CC1(C)OC(N[C@@H](CCO)c2ccccc2)=NS(=O)(=O)C1(C)c1cccc(Br)c1` (stereo partly drawn) [Example 33, (S)-3-[5-(3-Bromophenyl)-5,6,6-trimethyl-4,4-dioxo-5,6-dihydro-4H-4lambda6-[1,4,3]oxathiazin-2-ylamino]-3-phenyl-propan-1-ol], with 8 nM. Next, `C[C@H](NC1=NS(=O)(=O)C(C)(c2ccccc2)C(C)(C)O1)c1ccccc1F` (stereo partly drawn) [Compound 56, [(S)-1-(2-Fluorophenyl)ethyl]-(5,6,6-trimethyl-4,4-dioxo-5-phenyl-5,6-dihydro-4H-4lambda6-[1,4,3]oxathiazin-2-yl)amine, stereomer 1]: 8 nM. Next, `CC(=O)c1ccc(C2C(C)(C)OC(N[C@@H](C)c3ccccc3F)=NS2(=O)=O)cc1` (stereo partly drawn) [Example 163, 1-(4-{2-[(S)-1-(2-fluorophenyl)-ethylamino]-6,6-dimethyl-4,4-dioxo-5,6-dihydro-4H-4lambda6-[1,4,3]oxathiazin-5-yl}-phenyl)-ethanone]: 15 nM; `CC1(C)OC(N[C@@H](CCO)c2ccccc2F)=NS(=O)(=O)C1c1ccc(CN2CCOCC2)cc1` (stereo partly drawn) [Example 129, (S)-3-[6,6-Dimethyl-5-(4-morpholin-4-ylmethyl-phenyl)-4,4-dioxo-5,6-dihydro-4H-4lambda6-[1,4,3]oxathiazin-2-ylamino]-3-(2-fluorophenyl)-propan-1-ol]: 18 nM; `CC1(C)OC(N[C@@H](CCO)c2ccccc2F)=NS(=O)(=O)C1c1ccc(N2CCN(CCC(F)(F)F)CC2)cc1` (single isomer, unassigned) [Example 183]: 20 nM. Compound `CC1(C)OC(N[C@@H](CCO)c2ccccc2F)=NS(=O)(=O)C1c1ccc(C2CCN(CCO)CC2)cc1` (stereo partly drawn) [Example 104] came in with an IC50 of 28 nM.

In the case of `CC1(C)OC(N[C@@H](CCO)c2ccccc2F)=NS(=O)(=O)C1(C)c1cccc(N2CCN(S(C)(=O)=O)CC2)c1` (stereo partly drawn) [Example 44, (S)-3-(2-Fluorophenyl)-3-{5-[3-(4-methanesulfonyl-piperazin-1-yl)-phenyl]-5,6,6-trimethyl-4,4-dioxo-5,6-dihydro-4H-4lambda6-[1,4,3]oxathiazin-2-ylamino}-propan-1-ol], the IC50 was determined as 13 nM. `CN(C)Cc1ccc(-c2ccc(C3C(C)(C)OC(N[C@@H](CCO)c4ccccc4F)=NS3(=O)=O)cc2)cc1` (stereo partly drawn) [Example 123, (S)-3-[5-(4′-Dimethylaminomethyl-biphenyl-4-yl)-6,6-dimethyl-4,4-dioxo-5,6-dihydro-4H-4lambda6-[1,4,3]oxathiazin-2-ylamino]-3-(2-fluorophenyl)-propan-1-ol] came in with a half-inhibitory concentration (IC50) of 13 nM.

`CN1CCN(c2ccc(-c3ccc(C4C(C)(C)OC(N[C@@H](CCO)c5ccccc5F)=NS4(=O)=O)cc3)cn2)CC1` (stereo partly drawn) [Example 145, (S)-3-(6,6-Dimethyl-5-{4-[6-(4-methyl-piperazin-1-yl)-pyridin-3-yl]-phenyl}-4,4-dioxo-5,6-dihydro-4H-4lambda6-[1,4,3]oxathiazin-2-ylamino)-3-(2-fluoro-phenyl)-propan-1-ol]: it took 5 nM to reach half-maximal inhibition (IC50). Then `C[C@H](NC1=NS(=O)(=O)C(c2cccc(C(=O)NCc3ccccn3)c2)C(C)(C)O1)c1ccccc1F` (stereo partly drawn) [Example 194, 3-{2-[(S)-1-(2-fluorophenyl)-ethylamino]-6,6-dimethyl-4,4-dioxo-5,6-dihydro-4H-4lambda6-[1,4,3]oxathiazin-5-yl}-N-pyridin-2-ylmethyl-benzamide], with 14 nM; and `CC1(C)OC(N[C@@H](CCO)c2ccccc2F)=NS(=O)(=O)C1c1ccc(C2CCN(CCC(F)(F)F)CC2)cc1` (stereo partly drawn) [Example 143, (S)-3-(6,6-Dimethyl-4,4-dioxo-5-{4-[1-(3,3,3-trifluoropropyl)-piperidin-4-yl]-phenyl}-5,6-dihydro-4H-4lambda6-[1,4,3]oxathiazin-2-ylamino)-3-(2-fluorophenyl)-propan-1-ol], with 13 nM.
